Experimental data reported in patent US6696424B1, “Cytofectin dimers and methods of use thereof” (Vical Incorporated, priority 1999, dated 2004).

System: B16F10 melanoma tumors
Assay: Subcutaneous melanoma tumor model, in vivo transfection with CAT reporter gene
Set-up: species or system BALB/C mice
Conditions: cytofectin/CAT plasmid complex injected into tumor, tumors collected after forty-eight hours; averages; FIG. 3
Procedure: A) General Subcutaneous Tumor Transfection Assay. Tumors are prepared by injecting a suspension of tumor cells subcutaneously on the side of a mouse strain compatible with the specific tumor type. The tumors are periodically measured. Once the tumors reach a size suitable for injection, the tumor volume is approximated based on the measured diameter assuming a spherical tumor. A complex of the cytofectin compound to be evaluated with a plasmid encoding a reporter gene (e.g., CAT) in a volume of saline equal to the volume of the tumor to be treated is then injected at a flow rate optimized for the particular tumor type. After an appropriate time, the tumors are collected, frozen and then ground up. The reporter gene product is subsequently extracted and the quantity expressed is determined using extraction and assay conditions appropriate for the particular gene product. A variety of tumor types may be evaluated using this general technique. […]
B) Subcutaneous Melanoma Tumor Model. […] When the tumors reached 4.5 mm to 7.0 mm in diameter, the volume of each individual tumor was calculated by measuring the diameter of the tumor and assuming a spherical tumor. For each individual tumor, a volume of the cytofectin/CAT plasmid complex in saline equivalent to the calculated volume of the tumor was injected into the tumor at a rate of 2 ml/min. […] CAT activity was quantitated as described below. […]

Row | SMILES | CAT activity (relative transgene expression vs pDNA transfection alone)
1 | CCCCCCCCCCCCCCOCC(C[N+](C)(C)CCCNC(=O)NCCCCNC(=O)NCCC[N+](C)(C)CC(COCCCCCCCCCCCCCC)OCCCCCCCCCCCCCC)OCCCCCCCCCCCCCC (centres unmarked) [SBGU-DMRIE] | greater activity than the naked DNA (pDNA) control
2 | CCCCCCCCCCCCCCOCC(C[N+](C)(C)CCCNC(=O)NCCCCCCNC(=O)NCCC[N+](C)(C)CC(COCCCCCCCCCCCCCC)OCCCCCCCCCCCCCC)OCCCCCCCCCCCCCC (centres unmarked) [SHGU-DMRIE] | greater activity than the naked DNA (pDNA) control
